Among the data in the METLIN SMRT retention time set (Domingo-Almenara et al. 2019) are RP-LC retention time values, retold here.

Each structure is given as a SMILES string.

The data set in a line: gradient 5% acetonitrile 3 min, to 50% in 2 min, to 85% in 15 min, held 3 min, 100 µL/min. To be noted: column: Zorbax Extend-C18 2.1 x 50 mm; eluents: water / acetonitrile, 0.1% formic acid. An outline of the steps: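 The mobile phases were water and acetonitrile, each with 0.1% formic acid, pumped at 100 μL/min through a Zorbax Extend-C18 column (2.1 × 50 mm, 1.8 μm). Pure standards were injected as mixtures of ~100 molecules and detected by a quadrupole time-of-flight mass spectrometer in positive and negative ionization mode. Retention time came from computationally picked adduct peaks, each inspected by hand.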
`Cc1ccn2cc(-c3ccc(C)c(NS(=O)(=O)c4cc(C)c(C)cc4C)c3)nc2c1` had an RP-LC retention time of 759 s.

Turning to `O=C(Nc1ccc2c(c1)OCCO2)C1CCN(c2cnc3nccnc3c2)CC1`, the RP-LC retention time was determined as 666 s.

Regarding `Cc1cc(C)c(NC(=O)Cn2ncc3c(N4CCN(c5ccccn5)CC4)ncnc32)c(C)c1`, the RP-LC retention time was 620 s.

Take `CCOC(=O)CCC(=O)N1CCCC(COCc2ccccc2)C1` (stereo not given): the RP-LC retention time came to 842 s.

Consider `CCC(CO)NCc1ccc(-c2cccc(Cl)c2C)o1` (stereo not given), for which the RP-LC retention time was 683 s.

Turning to `COc1ccccc1NC(=O)Cn1cnc2nc(N3CCC(C(=O)NC4CC4)CC3)sc2c1=O`, the RP-LC retention time was found to be 656 s.

On to `CCNC(=O)C1CCCN(c2nc3ncn(CC(=O)Nc4ccc(C)cc4C)c(=O)c3s2)C1` (stereo not given), for which the RP-LC retention time was 711 s.

`O=C(Cn1cccn1)N1CCCC(c2nnc(-c3ccccc3F)s2)C1` (stereo not given) returned an RP-LC retention time of 690 s.

For `Cc1noc(C2CN(C(=O)Nc3ccccc3Cl)CC23CCOCC3)n1` (stereo not given), the RP-LC retention time is 732 s.

Compound `O=c1cc(CSc2nnc(-c3ccccc3F)o2)nc2sccn12` showed an RP-LC retention time of 745 s.

Consider `CCn1cnc2ccc(-c3noc(COc4ccccc4C)n3)cc21`, for which the RP-LC retention time is 807 s.

The compound `Cc1nnc(NC(=O)CSc2cc(N3CCCC3)ncn2)s1` registered an RP-LC retention time of 577 s.

As to `CCOC(=O)C(NC(=O)C1CCCN1C(=O)OCc1ccccc1)C(=O)OCC` (stereo not given), the RP-LC retention time was 855 s.

`CCc1csc(-c2ccc(N3CCN(C(=O)c4cccs4)CC3)nc2)n1` yielded an RP-LC retention time of 900 s.

In turn, `CCn1c(=O)c(C(=O)NCc2ccccc2Br)nc2cccnc21` yielded an RP-LC retention time of 871 s.

`O=C(COc1cccc2ccc(N3CCOCC3)nc12)NCC1CCCO1` (stereo not given): the RP-LC retention time came to 564 s.

As to `COc1ccc(-c2csc3c(=O)n(CC(=O)NCc4ccco4)cnc23)cc1`, the RP-LC retention time amounted to 764 s.

With `Cc1noc(C)c1S(=O)(=O)N1CCC(c2noc(-c3ccncc3)n2)C1` (stereo not given), the RP-LC retention time came out at 789 s.

In turn, `Cc1ccc(CNS(=O)(=O)c2cc3c4c(c2)CCC(=O)N4CCC3)cc1` displayed an RP-LC retention time of 868 s.

The compound `COc1ccc(Cc2nc3nccc(-c4ccc(F)cc4OC)n3n2)cc1` came in with an RP-LC retention time of 871 s.

With `CC(=O)c1cccc(C(=O)N2CCC3(CC2)N=C(c2ccc(C)cc2)NO3)c1`, the RP-LC retention time was found to be 772 s.

`Cc1c2cnn(-c3ccccc3)c(=O)c2c(C)n1C(C)C(=O)NCCN1CCOCC1` (stereo not given): the RP-LC retention time came out at 607 s.

As to `O=C(Cn1nc(C(=O)N2CCOCC2)cc1C1CC1)NCCCN1CCCC1=O`, the RP-LC retention time is 566 s.

In turn, `COc1ccc(Cn2nc3ccc(S(=O)(=O)N4CCOCC4)cn3c2=O)cc1F` returned an RP-LC retention time of 811 s.

With `O=C(Cc1ccc(F)cc1)N[C@H](Cc1ccccc1)C(=O)NCc1cscn1`, the RP-LC retention time came out at 741 s.

`O=C(Nc1ccc2c(c1)OCCO2)C1CCCN(c2ncnc3c2nc2n3CCCCC2)C1` (stereo not given) showed an RP-LC retention time of 750 s.

`Cc1ccc(-c2nc3n(c2CNC(=O)c2ccco2)CCS3)cc1` showed an RP-LC retention time of 639 s.

In turn, `CCC1(CC=C2CCCCC2)C(=O)NC(=O)NC1=O` returned an RP-LC retention time of 863 s.

Compound `Cc1ccn2cc(-c3ccc(NS(=O)(=O)c4cccc(Cl)c4)cc3)nc2n1` yielded an RP-LC retention time of 679 s.

In the case of `CS(=O)(=O)N1CCC(C(=O)NCCc2csc(-c3cccs3)n2)CC1`, the RP-LC retention time came out at 695 s.

Compound `COc1cc(OC)cc(-c2noc(-c3nn(-c4cccc(F)c4)ccc3=O)n2)c1` gave an RP-LC retention time of 881 s.

In turn, `CCC(C)NC(=O)C1CCCN1S(=O)(=O)c1cc2c(cc1C)NC(=O)CO2` (stereo not given) gave an RP-LC retention time of 710 s.

As to `CCC(CO)Nc1ncc([N+](=O)[O-])c(N)n1` (stereo not given), the RP-LC retention time stood at 570 s.

For the compound `COc1nn(C)cc1C(=O)Nc1nnc(-c2sc(C)nc2C)o1`, the RP-LC retention time was 598 s.

The compound `CCN1C(=O)c2cccnc2Sc2cc(CNC(=O)C3CCN(C(C)=O)CC3)ccc21` showed an RP-LC retention time of 638 s.

For the compound `Cc1nc(-c2cccc(-c3noc(-c4cncc(Br)c4)n3)c2)cs1`, the RP-LC retention time was 1230 s.

As for `O=C(O)[C@@H]1CN(Cc2ccccc2)C[C@@H]1C(=O)N1CCc2ccccc21`, the RP-LC retention time worked out at 641 s.

In the case of `CCOC(=O)c1cnc2nc(C)ccc2c1Nc1ccc(F)cc1`, the RP-LC retention time came to 672 s.

`Cc1oc(-c2[nH]ncc2C(=O)N(C)C)cc1S(=O)(=O)N1CCC(C)CC1`: the RP-LC retention time was 710 s.

The compound `Cn1ncc2c(N3CCSCC3)nc(C(=O)NCc3cccs3)nc21` registered an RP-LC retention time of 778 s.

`Fc1cccc(-c2noc(-c3ccc(N4CCN(CCOc5ccc(Cl)cc5)CC4)nc3)n2)c1` showed an RP-LC retention time of 920 s.

On to `Cc1ccc(NS(=O)(=O)c2cc(-c3cc(C(F)(F)F)on3)sc2C)cc1Cl`, for which the RP-LC retention time worked out at 1190 s.

As for `CN(C)CCNC(=O)c1ccc(CS(=O)Cc2ccccc2Cl)o1` (stereo not given), the RP-LC retention time came to 597 s.

For `Cc1ncc2c(SCC(=O)Nc3ccc(Br)cc3)ncnc2n1`, the RP-LC retention time worked out at 578 s.

With `COc1ccc(OCc2noc(CNC(=O)Cc3c[nH]c4ccccc34)n2)cc1`, the RP-LC retention time was determined as 681 s.

`CCOC(=O)CCC(=O)Nc1cccc2ccc(OC)nc12`: the RP-LC retention time worked out at 904 s.

As to `O=C(NCc1ccc(F)cc1)c1ccc2ncnc(N3CCCC3)c2c1`, the RP-LC retention time was determined as 646 s.

As for `CC(NC(=O)Nc1cccc(Br)c1)C(=O)N1CCc2ccccc21` (stereo not given), the RP-LC retention time was 950 s.

The compound `CCSc1nnc(-c2nn(C)c3c2CN(C(=O)Nc2ccc(OC)cc2)CC3)n1CC` displayed an RP-LC retention time of 809 s.

`CCOc1ccc(NC(=O)C(C)C2CCN(C(=O)Nc3ccc(Cl)cc3)CC2)cc1` (stereo not given) returned an RP-LC retention time of 942 s.

`COc1cc(NC(=O)N(C)CCc2noc(COc3ccc(F)cc3)n2)cc(OC)c1` showed an RP-LC retention time of 874 s.

As to `Cc1ccc(N2CC(c3noc(-c4ccco4)n3)CC2=O)cc1` (stereo not given), the RP-LC retention time came out at 877 s.

The compound `CCC(=O)Nc1ccc(-n2cnc(C(=O)NCc3ccccc3)c2)nc1` displayed an RP-LC retention time of 697 s.

With `CCCN(Cc1ccc(OC)c(OC)c1)Cc1cc(=O)n2ccc(C)cc2n1`, the RP-LC retention time worked out at 613 s.

Compound `CC1CCN(C(=O)CCNc2c(-c3ccc(F)cc3)nc3cnccn23)CC1` gave an RP-LC retention time of 794 s.

`O=c1cccc2n1CC1CC2CN(Cc2nnc(-c3cccc(Br)c3)o2)C1` (stereo not given) gave an RP-LC retention time of 803 s.

The compound `Cc1ccc(NC(=O)C2CCN(S(=O)(=O)c3ccc4c(c3)sc(=O)n4C)CC2)cc1Cl` gave an RP-LC retention time of 978 s.

Compound `ClCC(CNCc1ccccc1)c1ccccc1` (stereo not given) yielded an RP-LC retention time of 723 s.

`COc1ccc(CNC(=O)CN2C(=O)NC(c3ccc(Cl)cc3)C3=C2COC3=O)cc1` (stereo not given) displayed an RP-LC retention time of 780 s.

Turning to `CCOc1ccc(-c2nc(NC(=O)c3c(F)cccc3F)sc2C)cc1`, the RP-LC retention time was determined as 1110 s.

For `Cc1cc(C(=O)NCCN2CCN(c3cccc(C)c3C)CC2)n(-c2ccccc2)n1`, the RP-LC retention time worked out at 705 s.

In turn, `COc1ccc(CCC(=O)N2CCn3c(C)nnc3C2)cc1` gave an RP-LC retention time of 569 s.

The compound `CC1CN(C(=O)N2CCC(C(=O)N3CCN(c4ccccn4)CC3)CC2)c2cc(Cl)ccc2O1` (stereo not given) returned an RP-LC retention time of 672 s.

As for `Cc1ccccc1C(=O)N1CC(C(=O)NCC(C)C)C(c2cccc(C(F)(F)F)c2)C1` (stereo not given), the RP-LC retention time amounted to 907 s.

`COCCCNS(=O)(=O)c1cc(-c2[nH]ncc2C(=O)N2CCCCC2)oc1C` gave an RP-LC retention time of 646 s.

Take `O=C(CCc1c(-c2ccc(F)cc2)nc2ccccn12)NCc1ccccc1Cl`: the RP-LC retention time is 779 s.

In turn, `CCN(CC)CCCNS(=O)(=O)c1cc(-c2cc(C)no2)cs1` yielded an RP-LC retention time of 619 s.

In the case of `CCCC1c2nccn2CCCN1C(=O)Cc1c(C)noc1C` (stereo not given), the RP-LC retention time stood at 579 s.

Compound `CN1CCC(N2CCN(S(=O)(=O)c3ccccc3C(F)(F)F)CC2)C1=O` (stereo not given) yielded an RP-LC retention time of 594 s.

With `O=C(c1cc(F)ccc1Cl)N1CCc2nc(-c3ccc(F)cc3)ncc2C1`, the RP-LC retention time was 1020 s.

As to `CCOc1ccc(-c2noc(Cn3c(=O)n(CCCOC)c(=O)c4ccccc43)n2)cc1`, the RP-LC retention time turned out to be 1050 s.

On to `Cc1cccc(-c2ncccc2CNS(=O)(=O)c2cccc(F)c2)c1`, for which the RP-LC retention time stood at 724 s.

`CCOC(=O)c1c(S(=O)(=O)N2CCC(C(=O)Nc3ccccc3C)CC2)c(C)n(CC)c1C` displayed an RP-LC retention time of 874 s.

Regarding `O=C(Nc1ccc(Br)cc1F)N1CCc2nc(-c3ccc(F)cc3)ncc2C1`, the RP-LC retention time is 1050 s.

Consider `CC1(C(=O)N2CC(F)(F)C[C@H]2c2nc(-c3ncccn3)no2)CC1`, for which the RP-LC retention time was 674 s.

Consider `CCNC(=O)CCc1nc2ccccc2n(CC(=O)Nc2ccc(C(=O)OCC)cc2)c1=O`, for which the RP-LC retention time worked out at 764 s.

On to `CCCNC(=O)c1c2c(nc3ccc(C)cc13)CCC2`, for which the RP-LC retention time was 625 s.

Consider `Cc1csc(-c2ccc(N3CCN(C(=O)c4cc(Cl)ccc4F)CC3)nc2)n1`, for which the RP-LC retention time was found to be 943 s.

For the compound `CC1(C)CC(=O)C2=C(C1)N(CCCN1CCOCC1)C(=O)C2(NC(=O)c1ccccc1)C(F)(F)F` (stereo not given), the RP-LC retention time is 634 s.

`CCNc1nc(C)cc(N2CCN(S(=O)(=O)c3cc(Cl)ccc3Cl)CC2)n1` registered an RP-LC retention time of 776 s.
